# Test results from BindingDB's records for doi:10.1038/sj.bjp.0706048 (University of Nottingham, 2005).
# Structures can show the parent of a compound that is named as a salt.
# Assays:
# [1] = target: Beta-3 adrenergic receptor (Homo sapiens, UniProt P13945); assay: 3H-CGP 12177 Whole Cell Binding Assay
# Excerpt: (§1) The whole cell-binding studies were undertaken in CHO cell lines stably expressing each beta-adrenoceptor subtype.
# [2] = target: Beta-1 adrenergic receptor (Homo sapiens, UniProt P08588); assay: 3H-CGP 12177 Whole Cell Binding Assay; conditions: pH 7.4; 37 °C
# Chain of Beta-1 adrenergic receptor (P08588 whole entry): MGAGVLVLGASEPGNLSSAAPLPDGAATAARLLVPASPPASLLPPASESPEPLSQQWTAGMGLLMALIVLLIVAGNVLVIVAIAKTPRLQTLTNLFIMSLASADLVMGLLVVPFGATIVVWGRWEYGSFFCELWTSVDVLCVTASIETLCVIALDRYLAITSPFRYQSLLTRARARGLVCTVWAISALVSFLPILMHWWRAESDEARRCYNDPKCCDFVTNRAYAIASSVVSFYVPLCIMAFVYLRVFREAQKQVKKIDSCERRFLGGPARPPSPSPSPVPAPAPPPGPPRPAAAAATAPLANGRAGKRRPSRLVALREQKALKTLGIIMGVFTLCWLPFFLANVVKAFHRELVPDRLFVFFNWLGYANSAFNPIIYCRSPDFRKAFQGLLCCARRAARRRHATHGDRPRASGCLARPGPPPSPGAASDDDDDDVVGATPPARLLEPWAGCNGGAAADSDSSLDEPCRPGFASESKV
# Excerpt: as §1
# Chain of Beta-3 adrenergic receptor (P13945 whole entry): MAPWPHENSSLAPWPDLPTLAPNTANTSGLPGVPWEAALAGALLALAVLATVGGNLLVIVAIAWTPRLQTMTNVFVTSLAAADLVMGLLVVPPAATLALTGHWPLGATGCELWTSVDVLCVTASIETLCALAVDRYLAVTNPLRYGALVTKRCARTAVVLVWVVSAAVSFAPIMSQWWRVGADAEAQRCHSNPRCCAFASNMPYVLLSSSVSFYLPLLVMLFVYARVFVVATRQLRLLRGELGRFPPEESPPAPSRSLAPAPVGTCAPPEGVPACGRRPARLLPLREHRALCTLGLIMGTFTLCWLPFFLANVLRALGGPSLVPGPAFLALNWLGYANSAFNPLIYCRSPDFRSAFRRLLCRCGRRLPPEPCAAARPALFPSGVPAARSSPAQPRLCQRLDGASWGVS
smiles,measurement,setting,value
"CC(C)(C)NC[C@H](O)COc1nsnc1N1CCOCC1 (racemic) [tert-butyl(2-hydroxy-3-{[4-(morpholin-4-yl)-1,2,5-thiadiazol-3-yl]oxy}propyl)amine]",Kd,[1],0.158 µM
CC(C)NCC(O)c1ccc2ccccc2c1 (stereo unspecified) [1-(naphthalen-2-yl)-2-(propan-2-ylamino)ethan-1-ol],Kd,[1],1.29 µM
same,Kd,[2],0.363 µM
O=C(O)COc1ccc(OCCNC[C@@H](O)COc2ccccc2)cc1 [2-[4-(2-{[(2R)-2-hydroxy-3-phenoxypropyl]amino}ethoxy)phenoxy]acetic acid],Kd,[1],0.234 µM
"CC(C)(C)NCC(O)COc1cccc2[nH]c(=O)[nH]c12 (stereo unspecified) [4-[3-(tert-butylamino)-2-hydroxypropoxy]-2,3-dihydro-1H-1,3-benzodiazol-2-one hydrochloride]",Kd,[1],0.102 µM
CC(C)(C)NCC(O)COc1cccc2c1C[C@H](O)[C@H](O)C2 (stereo partly specified) [Corgard],Kd,[1],0.661 µM
same,Kd,[2],0.059 µM
CC(C)NC[C@H](O)COc1ccc(CCOCC2CC2)cc1 [[(2S)-3-{4-[2-(cyclopropylmethoxy)ethyl]phenoxy}-2-hydroxypropyl](propan-2-yl)amine],Kd,[1],1.07 µM
OCc1cc(C(O)CNCCCCCCOCCCCc2ccccc2)ccc1O (stereo unspecified) [salmeterol xinafoate],Kd,[1],1.86 µM
Cc1ccc(Cl)c(OCC(O)CNC(C)(C)C)c1 (stereo unspecified) [tert-butyl[3-(2-chloro-5-methylphenoxy)-2-hydroxypropyl]amine],Kd,[1],0.091 µM
same,Kd,[2],0.0031 µM
